According to patent US11058702B2 (EMEK, Inc., priority 2014, dated 2021):
Where “and” joins values, the source holds several entries; their conditions need not be identical. Identical values can stand only once. Like-named read-outs stand apart in the source and are kept apart here.

Legend:
[1] = test system: AP site; details: cited from earlier work
[2] = test system: human cancer cell models; test: IUdR+MX in experimental human cancer cell models; assay type: cell-based
Excerpt: BER processing typically leads to chemotherapy drug and IR resistance. Consequently, the recognition and detection of BER-deficient cancers and/or the development of chemical inhibitors of specific BER enzymes can reverse alkylating and anti-metabolite drug resistance, as well as IR resistance. Based in part on the pre-clinical results from Dr. Kinsella's lab, methoxyamine (MX), a chemical inhibitor of BER, is currently undergoing clinical testing as TRC-102 in combination with chemotherapy drugs including temozolomide. MX is a small organic amine derivative of alkoxyamine that blocks the short patch BER pathway by covalently binding the AP site formed by a specific glycosylase, rendering it refractory to the catalytic activity of AP endonuclease 1. A MX-bound AP site is repaired much more slowly (>300×) than a normal AP site, and enhances cell death.

[3] = in vivo
Excerpt: It has been previously reported that kinetically distinct forms of aldehyde oxidase exist in male and female rodent liver, and that these distinct forms occur as a result of differences in redox state and not in cDNA sequencing. […] A high degree of homology exists between mouse and human aldehyde oxidase.

[4] = Plasma pharmacokinetics of po IPdR in athymic mice
Excerpt: These nucleoside analogs are extracted from the plasma by the addition of 5-chloro-2′-deoxyuridine (internal standard) and acetonitrile. The samples are redissolved in deionized water for HPLC analysis using a Spectra-Physics P2000 pump and UV2000 detection (Spectra-Physics Analytical, Fremont, Calif.) on a 3.9×300 mm μ Bondapak C18 reverse phase column (Waters Associates, Milford, Mass.). […] Plasma samples are processed by solvent deproteinization. […] All solvents should be high-pressure liquid chromatography (HPLC) grade.

[5] = Plasma PK of once daily po IPdR x 28 days; assay type: in vivo, Fischer-344 rats
Excerpt: Cancer research. 1994; 54(10):2695-700. […] Plasma samples are processed by solvent deproteinization.
This study was requested by the FDA as part of the pre-clinical testing of po IPdR prior to IND submission. […] Thus, the PK profile for po IPdR appears quite similar in mice and rats.

[6] = in vivo; details: daily po bolus (gastric gavage) for 6 days
Method: No further dose escalations were used because of the increased risk of pulmonary aspiration with larger drug volumes (≥2000 mg/kg/d).

[7] = test system: IPdR aldehyde oxidase; details: intestine, bone marrow, lung and kidney; cited from earlier work
[8] = test system: chordoma; test: Predicted clinical use of IPdR + proton therapy; assay type: in vivo, human; details: IPdR added to PT
Excerpt: The patient will continue to take oral IPdR throughout the course of PT, and will discontinue IPdR following completion of PT.
PT as a modality of RT is gaining popularity as it allows delivery of higher doses of IR with equivalent or less toxicity (i.e. the TI of PT is higher than that of conventional RT). The use of PT, however, is limited by availability (limited number of PT centers), feasibility (logistics involved in the administration of PT formidable), and the cost (cost of PT is, on average, 3-5 times the cost of conventional RT).

[9] = test system: locally advanced rectal cancer; test: Predicted clinical use of po IPdR + RT + capecitabine; assay type: in vivo, human; details: po IPdR added to RT+capecitabine
Excerpt: The biochemical and cellular interactions of RT+FP are felt to result from inhibition of the enzyme, thymidylate synthetase (TS) by the FP monophosphate metabolite, FdUMP, leading to decreased (or unbalanced) nucleotide pools necessary for DNA synthesis and decreased DNA repair following RT damage. […] The clinical and PK data from this ongoing clinical trial will be used in the design of a future Phase II clinical trial of IPdR+RT+twice daily po capecitabine as pre-operative therapy in patients with locally advanced rectal cancer.
The patient will continue to take oral IPdR in addition to capecitabine therapy throughout the course of RT, and will discontinue IPdR and capecitabine following completion of RT.

[10] = test system: herpes simplex virus-infected HeLa cells; details: cited from earlier work
[11] = test system: locally advanced pancreas cancer; test: Predicted clinical use of IPdR + gemcitabine + RT; assay type: in vivo, human; details: from 40%
Excerpt: The patient will continue to take oral IPdR in addition to receiving gemcitabine therapy throughout the course of RT, and will discontinue IPdR following completion of RT.

[12] = test system: cellular DNA of HCT-116, HT-29, U251 xenografts, bone marrow, intestine, liver
Method: After fixing the single-cell suspension with 70% ethanol in normal saline, the DNA is partially denatured with 2N HCl and subsequently reacted with a mouse anti-IUdR monoclonal antibody (Becton-Dickinson) followed by incubation with a fluorescein isothiocyanate-labeled goat anti-mouse secondary antibody. Finally, the nuclei are incubated with propidium iodide (PI) to label the DNA. Flow cytometric analysis is performed using two color analysis with emissions of fluorescein isothiocyanate detected with 530 nm short pass filters and PI detected with 630 nm long pass filters. In various embodiments, a minimum of 10,000 events is analyzed per sample, and the percentage of labeled cells is calculated.
Subsequently, single cells are disrupted and the DNA is enzymatically digested into free nucleosides. DNA extraction and digestion are performed by incubation with 10% trichloroacetic acid, followed by RNA digestion in 0.25M NaOH and enzymatic digestion with DNA-ase, alkaline phosphate and phosphodiesterase in MgCl and potassium phosphate buffer. A Waters 600E solvent delivery system on a 3.9×300 mm μ Bondapak reverse-phase column (Waters Corp, Milford, Mass.) is used. The mobile phase consists of 100 mm of sodium acetate buffer (pH 5.45) plus 7% (v/v) acetonitrile. Peak identification and quantitation of IUdR and thymidine (TdR) are performed against authentic nucleoside standards. The % IUdR-DNA replacement (or % TdR replacement) is calculated according to:

[13] = cited from earlier work
[14] = parameters: species or system ferret; details: in vivo
[15] = test system: high-grade gliomas; test: Predicted clinical use of IPdR + RT (+TMZ); assay type: in vivo, human
Excerpt: Dysregulation of other DNA repair pathways, including both MMR and BER, are reported to contribute to the aggressive biology and poor prognosis of high-grade gliomas. In a recent comprehensive analysis of the messenger ribonucleic acid (mRNA) expression levels in 157 DNA repair genes in two large, publically available, gene expression data sets from 699 GBM tumors, the expression levels of a key BER glycolylase (APE1) and a key MMR protein (PMS2) were reported to be independent prognostic biomarkers of survival following treatment with RT alone or TMZ alone. Based on this novel DNA repair prognostic index for GBM and other high-grade gliomas, future clinical studies of the use of RT+IPdR would stratify for specific molecular subsets of high-grade gliomas with intact MGMT (i.e. unmethylated promoter) and deficient MMR. […] In both clinical scenarios, the enhanced IPdR-mediated radiosensitization would be predicted to improve the duration of survival by 50%, as reflected in the early trials of ci IUdR+RT (Table 1).
The patient will initially undergo maximal surgical resection, with a goal of <5% residual disease (the infiltrative nature of high-grade gliomas dictates this goal). […] The patient will continue TMZ and IPdR throughout the course of RT.

[16] = test system: HT-29, HCT 116, U251 and U87 xenografts; test: Tumor regrowth assay of response to RT; assay type: in vivo, athymic mice
[17] = human colorectal and glioblastoma xenografts
[18] = IPdR+TMZ+RT, MGMT promoter methylated GBM

For `CON` [MX, methoxyamine], the “slower repair of MX-bound AP site than normal AP site” value [1] is given as greater than 300 × and the “effect of IUdR+MX on % IUdR-DNA incorporation and radiosensitization” value [2] is given as “enhances”.
With `O=c1ncc(I)cn1[C@H]1C[C@H](O)[C@@H](CO)O1` [IPdR] the clearance from plasma [3] was “rapidly cleared from plasma in a bi-exponential fashion”, the “peak plasma levels of IUdR” value ([4]; bolus 250 mg/kg IPdR po) was “up to 45 μM” and the “time to peak plasma levels of IUdR” value ([4]; bolus 250 mg/kg IPdR po) was no more than 15 min. For the same molecule, the “plasma levels of IPdR at 45 and 90 min” value ([4]; po 1500 mg/kg) was “remain elevated”, the “time to peak plasma level of IPdR” value ([4]; po IPdR bolus) was 10 to 20 min and the “time to peak plasma level of IUdR” value ([4]; po IPdR bolus) was 10 to 20 min. For the same molecule, the “time to peak plasma level of metabolite IP” value ([4]; po bolus of IPdR) was 45 to 90 min, the “time to peak plasma level of metabolite IU” value ([4]; po bolus of IPdR) was 45 to 90 min and the “Cmax values for IPdR with increasing dose” value ([5]; 0.2 or 1.0 gm/kg/day) was “less than dose proportional”. The “IUdR AUC values vs dose” value ([5]; after po IPdR) was “proportional with increasing dose”, the “time of peak IUdR concentrations” value ([5]; after po IPdR dosing) was no more than 15 min and the “mean half-life for IUdR” value ([5]; females, after po IPdR) was 8 h. For the same molecule, the “mean elimination half-life for IPdR” value ([5]; highest dose) was roughly 5 h, the “mean half-life for IUdR” value ([5]; males, after po IPdR) was 6 h and the “absorption of po IPdR” value ([5]; rat, in vivo, po) was “not dependent on sex, dose, or single (Day 1) versus multiple daily dosings (Day 28)”. For the same molecule, the “time of maximal concentrations of IPdR” value ([5]; single doses of 1.0 gm/kg/day) was 90 min, the “AUC values for IPdR after 28 days” value ([5]; vs Day 1) was “less than those observed after Day 1” and the tolerated dose [6] was “up to 1 g/kg/d”. The “activity of IPdR aldehyde oxidase in other normal tissues vs liver” value [7] was 10 fold less, the “predicted increase of the TI of the IR” value [8] was “up to 1.5 ×” and the “further improvement in DFS” value [9] was 10-15%. The “postulated pCR rate” value ([9]; from 10-15%) was 30-35%, the “toxicity to uninfected cells or mice” value [10] was “without toxicity” and the antiviral activity ([10]; in vitro and in vivo following po administration) was “significant activity”. For the same molecule, the LD50 (IPdR, one dose/day×14-28 days) was “never reached”, the “TI of IPdR in animals” value (LD50/ED50) was “∞” and the deaths (very high doses, one dose/day×14-28 days) was “no deaths were seen”. For the same molecule, the “expected percentage of patients achieving R0-resection” value [11] was greater than 60%, the “radiosensitization compared to continuous infusion IUdR” value ([12]; % IUdR-DNA incorporation as surrogate) was “more effective radiosensitizer” and the “increase in % IUdR-DNA cellular incorporation in tumor vs MTD of po IUdR” value ([12]; IPdR 1 g/kg/d for 6 days, HCT-116) was 2-3 fold. The “IUdR-DNA incorporation in tumors, po IPdR vs ci IUdR” value [12, 17] was “Increased IUdR-DNA”, the “increase in % IUdR-DNA tumor cell incorporation, po IPdR compared to ci IUdR” value ([12]; human tumor xenografts, MTD schedules of IUdR) was 2-3 fold and 2 fold and the “IUdR-DNA incorporation in normal tissues, po IPdR vs ci IUdR” value ([12]; mouse, in vivo, po) was “decreased in normal”. The “decrease in % IUdR-DNA incorporation in bone marrow and intestine, po IPdR compared to ci IUdR” value ([12]; mouse, in vivo, po) was 2 fold and 2-3 fold, the “less % IUdR-DNA incorporation in bone marrow and intestine, po IPdR vs po IUdR” value ([12]; mouse, in vivo, po) was no less than 2 fold and the “% IUdR-DNA incorporation, liver tumor metastases vs sc tumor” value ([12]; po IPdR, HCT-116) was “no differential effect”. For the same molecule, the “normal tissue systemic toxicities compared to continuous infusion IUdR” value ([12]; weight loss, myelosuppression) was “less normal tissue systemic toxicities”, the “plasma concentrations of IUdR vs oral dose of IPdR” value ([13]; 150 mg to 2400 mg) was “generally increased” and the “peak IUdR plasma levels” value ([13]; IPdR 2400 mg po, 6 patients) was 4.0 ± 1.02 µmol/L. The IUdR half-life ([13]; IPdR 2400 mg po) was 1.5 h, the “time IUdR plasma levels remained above 1 umol/L” value ([13]; IPdR 2400 mg po) was 3 to 4 h and the “time to peak IUdR plasma levels” value ([13]; IPdR 2400 mg po) was 1.67 ± 1.21 h. For the same molecule, the toxicities ([13]; po IPdR 150 mg-2400 mg) was “No toxicities”, the “IUdR levels decreasing over 8 hours to” value ([13]; po IPdR dose of 2400 mg) was 1 µM and the “duration of peak plasma levels of IUdR” value ([13]; po IPdR dose of 2400 mg) was 4 h. For the same molecule, the “peak plasma levels of IUdR” value ([13]; po IPdR dose of 2400 mg) was greater than 4 µM, the “transient plasma levels of IUdR” value ([13]; po IPdR) was “up to 4 μMol/L” and the “adverse events (NCI Common Toxicity Criteria version 4.0)” value ([13]; single po dose 150-2400 mg, 10 patients) was “no drug-related adverse events”. For the same molecule, the “blood cell counts, liver function tests, kidney function tests, urinalysis” value [14] was “No significant abnormalities”, the “gross findings at complete necropsy” value [14] was “no anatomic lesions” and the “hematologic, biochemical, or histopathologic changes” value [14] was “no significant hematologic,”. For the same molecule, the “histology of CNS tissues” value [14] was “No histological changes”, the “kidney and uterus weights” value [14] was “decreased” and the liver weights [14] was “increased”. The “microscopic changes in liver” value [14] was “minimal to moderate cytoplasmic vacuolation of hepatocytes”, the “weight loss at highest dose” value [14] was “species. Noted mild weight” and the “predicted prolongation of survival” value [15, 18] was “up to 70%”. The predicted survival [15, 18] was 24 months, the “predicted improvement of duration of survival” value ([15]; RT+IPdR or RT+IPdR+TMZ) was 50% and the “enhancement of response to RT with po IPdR” value [16, 17] was “IUdR. 1.3-1.5 fold”. For the same molecule, the “calculated SER for po IPdR” value ([16]; mouse, in vivo, po) was 1.3-1.5.
